Measurements as given in patent US10808008B2, “Aromatic-cationic peptides and uses of same” (Cornell University, priority 2012, dated 2020).
Where no end group is shown, it is not given here. [ ]: non-standard residue; d: D form.

How the values were obtained:
[1] = Fluorescence spectroscopy of labelled peptides with cardiolipin; type: binding; conditions: 1 μM peptide; CL 5 to 50 μg/ml
Source text: The peptides 2′,6′-Dmt-D-Arg-[…] (SS-19) and 2′,6′-Dmt-D-Arg-Phe-Lys-Ald-NH2 (SS-37) cationic peptides carry net positive charge at neutral pH. They are expected to associate with anionic phospholipid cardiolipin based on electrostatic interaction. The interaction of small peptides with lipid membranes can been studied using fluorescence spectroscopy (Surewicz and Epand, 1984). […] Polarity-sensitive fluorescent probes were incorporated into the peptides and fluorescence spectroscopy was used to determine if SS-19, SS-37 and SS-36 interact with CL.
The peptide 2′,6′-Dmt-D-Arg-Phe-(atn)Dap-NH2 (SS-19) contains anthraniloyl incorporated into diaminopropionic acid. Anthraniloyl derivatives fluoresce in the 410-420 nm range when excited at 320-330 nm (Hiratsuka T, 1983). The quantum yield of anthraniloyl derivatives is strongly dependent on the local environment, and can increase 5-fold going from water to 80% ethanol, together with a blue shift in the emission maxima (λ max) of <10 nm (Hiratsuka T, 1983). Fluorescence emission spectrum of SS-19 (1 μM) alone, and in the presence of increasing concentrations of CL (5 to 50 μg/ml), was monitored following excitation at 320 nm using Hitachi F-4500 fluorescence spectrophotometer.
The peptide 2′,6′-Dmt-D-Arg-Phe-Lys-Ald-NH2 (SS-37) contains an additional amino acid, aladan (Ald), which has been reported to be particularly sensitive to the polarity of its environment and it has been used to probe the electrostatic character of proteins (Cohen et al., 2002). When excited at 350 nm, λmax shifts from 542 nm in water to 409 nm in heptane, accompanied by a significant increase in quantal yield (Cohen et al., 2001). Fluorescence emission spectrum of SS-37 (1 μM) alone, and in the presence of increasing concentrations of CL, was monitored following excitation at 350 nm. Addition of CL (5 to 50 μg/ml) led to a 3-fold increase in quantal yield of SS-37 as well as a clear blue shift in λ max, from 525 nm without CL to 500 nm with 50 μg/ml CL (FIG. 11B).
The peptide 2′,6′-Dmt-D-Arg-Ald-Lys-NH2 (SS-36) contains Ald in place Phe^3 in SS-02. Fluorescence emission spectrum of SS-36 (1 μM) alone, and in the presence of increasing concentrations of CL, was monitored following excitation at 350 nm. SS-36 was the most sensitive to the addition of CL, with dramatic increase in quantal yield and blue shift observed with much lower added amounts of CL (1.25 to 5 μg/ml). The λmax shifted from 525 nm without CL to 500 nm with as little as 1.25 μg/ml CL, and quantal yield increased by more than 100-fold with the addition of 5 μg/ml of CL (FIG. 11C). […] Accordingly, aromatic-cationic peptides of the present disclosure are useful for the prevention or treatment of diseases or disorders characterized by dysregulation of cardiolipin.
Changes in the emission intensity of the [atn]SS-02 and the [ald]SS-02 were measured using a Hitachi F-4500 fluorescence spectrophotometer. The different solvents used to dissolve the various phospholipids (chloroform, methanol and ethanol) had negligible effect on the fluorescence spectrum of [atn]SS-02 and [ald]SS-02. All experiments were done in low ionic solution (deionized water) to optimize electrostatic interactions of peptides with phospholipids.
Increasing concentrations of cardiolipin (5, 10, 25, and 50 μg/mL) were added to 1 μM [atn]SS-02, and the emission intensity between 350 nm and 500 nm was measured.

[2] = molecular target: T1, cytochrome c and cardiolipin (CL) (Equus caballus, UniProt P00004); assay: Fluorescence quenching by cytochrome c in the presence of cardiolipin; type: binding, horse; conditions: CL 50 μg/ml
T1 construct: from tissue; host or cells: horse heart
T1 sequence (P00004 2-105 limits assumed): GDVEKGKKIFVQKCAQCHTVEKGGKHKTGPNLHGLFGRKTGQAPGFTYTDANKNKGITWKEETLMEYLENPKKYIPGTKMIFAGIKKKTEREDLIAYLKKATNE
Experimental: Fluorescence emission of SS-19 (10 μM) was monitored in real time (Ex/Em=320 nm/420 nm) using Hitachi F-4500 fluorescence spectrophotometer. […] CL may potentiate the interaction between SS-19 and cytochrome c by serving as an anionic platform for the two cationic molecules.
The quenching by cytochrome c was not displaced by sequential additions of bovine serum albumin (500 μg/ml) (FIG. 13C, A+arrows).
SS-36 also contains the polarity-sensitive fluorescent amino acid aladan. […] Accordingly, aromatic-cationic peptides of the present disclosure are useful for the prevention or treatment of diseases or disorders characterized by dysregulation of cardiolipin and/or cytochrome c, and/or diseases or disorders characterized by dysregulation of the cardiolipin/cytochrome c interaction.
Interaction of SS peptides with horse heart cytochrome c in the absence or presence of free cardiolipin or cardiolipin/POPC (1:1) liposomes (prepared as described in Example 22) was examined by fluorescence quenching of [atn]SS-02 (λex/λem=320/420 nm) and [ald]SS-02 (λex/λem=360/510 nm) upon addition of cytochrome c (using a Hitachi F-4500 fluorescence spectrophotometer). The solvents used to dissolve cardiolipin and POPC had negligible effect on cytochrome c-dependent quenching of these peptides. All experiments were done in low ionic solution (deionized water) or 20 mM Hepes pH 7.4.

[3] = molecular target: cardiolipin-cytochrome c complex (Equus caballus, UniProt P00004); assay: Cytochrome c reduction in the presence of cardiolipin; type: biochemical; conditions: 500 μM GSH
cardiolipin-cytochrome c complex, sequence (P00004 2-105 limits assumed, one chain of several): as the sequence (P00004 2-105 limits assumed) above
Experimental: Reduction of cytochrome c (20 μM) was induced by the addition of glutathione (500 μM) in the absence or presence of CL (100 μg/ml) (FIG. 15A). Reduction of cytochrome c was monitored by absorbance at 550 nm using a 96-well UV-VIS plate reader (Molecular Devices). Addition of CL decreased the rate of cytochrome c reduction by half.
The time course of cytochrome c reduction by ascorbate was recorded at 550 nm and 570 nm using a 96-well plate reader (Molecular Devices, Sunnyvale, Calif.). For all reactions, cytochrome c was preincubated with cardiolipin in the presence or absence of SS peptides for 1 min. […] Ascorbate (50 μM) was added to initiate the reduction of cytochrome c, and the absorbance was recorded for 5 min. The rate of reduction was calculated based on slope of the change in absorbance intensity of 550 nm over 570 nm.

[4] = molecular target: cytochrome c/cardiolipin complex (Equus caballus, UniProt P00004); assay: Soret circular dichroism of cytochrome c with cardiolipin; type: biochemical; conditions: 10 μM cytochrome c, 30 μg/ml CL, 10 μM peptide; 20 mM HEPES pH 7.5, 25° C.
cytochrome c/cardiolipin complex, sequence (P00004 2-105 limits assumed, one chain of several): as the sequence (P00004 2-105 limits assumed) above
Experimental: Circular dichroism (CD) was carried out to examine the effects of the peptides on protecting the heme environment of cytochrome c from the acyl chain of CL. For heme proteins, the Soret CD spectrum is strictly correlated with the heme pocket conformation. In particular, the negative 416-420 nm Cotton effect is considered diagnostic of Fe(III)-Met80 coordination in native cytochrome c (Santucci and Ascoli, 1997). […] CD spectra were obtained using AVIV CD Spectrometer Model 410.
Changes in the Soret CD spectrum of cytochrome c (10 μM) were recorded in the absence (dotted line) and presence (dashed line) of 30 μg/ml CL, plus addition of different peptides (10 μM) (solid line) (FIG. 14). CD measurements were carried out using 20 mM HEPES, pH 7.5, at 25° C. and expressed as molar ellipticity (A) (m Deg). […] Accordingly, aromatic-cationic peptides of the present disclosure are useful for the prevention or treatment of diseases or disorders characterized by dysregulation of cardiolipin and/or cytochrome c, and/or diseases or disorders characterized by dysregulation of the cardiolipin/cytochrome c interaction. In addition, aromatic-cationic peptides of the present disclosure are useful to protect the heme environment of cytochrome c from the acyl chain of cardiolipin.
Circular Dichroism (CD) spectra were collected with an AVIA 62 DS spectrophotometer equipped with a sample temperature controller. CD spectra of the Soret region (370-450 nm) were recorded with 10-mm path length cells containing 20 mM Hepes, pH 7.4, and 10 μM cytochrome c, in the presence or absence of 30 μg/ml cardiolipin and different SS peptide analogs (SS-02, [atn]SS-02, [ald]SS-02, and SS-31). The maximum lipid concentration was kept low to avoid spectral distortions due to excessive light scattering. All measurements were done at 25° C. All spectra were corrected for background, and the final spectrum shown represents the average of at least three experiments.

Row | Substance | increase in quantal yield on addition of CL [1] [fold] | quenching of fluorescence by cytochrome c in the presence of CL ([2]; 10 μM peptide, 2 μM cytochrome c) | displacement of quenching by bovine serum albumin in the presence of CL ([2]; BSA 500 μg/ml) | CL inhibition of cytochrome c reduction [3] | protection against CL-induced disappearance of negative Cotton effect [4]
1 | 2′,6′-Dmt-D-Arg-Phe-Lys-Ald-NH2 [SS-37] | 3 | similarly quenched | not displaced | – | –
2 | D-Arg-Tyr-Lys-Phe-NH2 ([dR]YKF-NH2; N-terminus assumed; SMILES N=C(N)NCCC[C@@H](N)C(=O)N[C@@H](Cc1ccc(O)cc1)C(=O)N[C@@H](CCCCN)C(=O)N[C@@H](Cc1ccccc1)C(N)=O) [SPI-231] | – | – | – | prevented CL inhibition of cytochrome c reduction | Protect the Heme Environment of Cytochrome c from the Acyl Chain of CL
